Reference: patent publication US9085531B2 (priority 2004, dated 2015)
Structures can show the parent of a compound that is named as a salt.

Columns and labels:
[1] = system: tetrabenazine-induced exploratory loss and ptosis in mice; test: Tetrabenazine assay; details: mouse, in vivo

Structure (SMILES) | activity in the tetrabenazine assay [1] | melting point [°C]
CN1Cc2c(N)cccc2C(c2ccccc2)C1 (stereo not shown) [Nomifensine] | potent biological activity | 
COC(=O)C(c1ccccc1)C1CCCCN1.Cl (stereo not shown) [Ritalin®] | potent activity | 
CN1Cc2cc(-c3cccnn3)ccc2C(c2cc3ccccc3s2)C1 (stereo not shown) (as salt: maleate) |  | 100 to 104
CN1Cc2ccccc2C(C2=Cc3ccccc3CCC2)C1 (stereo not shown) (as salt: maleate) |  | 178 to 180
